Source: patent US8119630B2 (Arrow Therapeutics Limited, priority 2002, dated 2012)
Read-outs that look alike come from different tables or passages of the source.

Tested on: RSV
Assay: XTT assay, RSV-infected Vero cells
Assay type: cell-based, Respiratory Syncytial Virus (RSV)
Conditions: Vero cells infected with RSV, m.o.i.≈0.2, 6 days at 33° C.
Protocol: Examples 1 to 74 and 83 to 124 were tested using the following protocol.
The inner 60 wells of 96 well tissue culture plates were seeded with Vero cells at 3×10^4 cells/well (1×10^4 cells/well for toxicity studies) in 100 or 150 μl of medium and incubated at 37° C. overnight or until nearing confluency. For primary screen, 25 μl compounds were added directly to 100 μl medium in single wells to duplicate plates. A third plate was prepared for simultaneous toxicity investigation.
For follow-up investigation, 70 μl of compound in duplicate wells were added directly to culture medium at 3.2× final concentration and ½ log serially diluted down columns of plate. A duplicate plate was prepared for simultaneous toxicity investigation.
Cells were infected with 25 μl RSV to give m.o.i.≈0.2. Some 100 μl of sterile distilled water were added to the outer wells of the plate and incubated at 33° C. for 6 days. Some 0.25 μl/ml PMS were added to stock XTT solution, final conc. […]. Then 25 μl warmed XTT/PMS solution were added to each well and incubated for 5 hours at 37° C. Plates were shaken (DynaTech Vari-Shaker) vigorously for 10 mins and allowed to cool for 15 mins before sealing. Absorbance at 450 nm was measured and data analysed using Microsoft Excel software.
Maximum OD450nm reading (uninfected, untreated control cells) corresponded to 100% inhibition. Minimum OD450nm readings (infected control cells) corresponded to 0% inhibition. Log 10 concentration was plotted against OD450nm and IC50 (Table 1) values were calculated from either reading 50% value from graph or using regression analysis.

[1] = human respiratory syncytial virus, Vero, 144 h, read-out: XTT IC50 (uM), Table 1

| Compound | IC50 [1] | IC50 (Table 1, read-out: XTT IC50) |
| --- | --- | --- |
| CCN(CC)C(=O)NC1N=C(c2ccccc2)c2ccccc2NC1=O (stereo not drawn) [Example 2, 1,1-Diethyl-3-(2-oxo-5-phenyl-2,3-dihydro 1H-benzo[e][1,4]diazepin-3-yl)-urea] | 4 µM | – |
| CCC(=O)NC1N=C(c2ccccc2)c2ccccc2NC1=O (stereo not drawn) [Example 3, N-(2-Oxo-5-phenyl-2,3-dihydro-1H-benzo[e][1,4]diazepin-3-yl)-propionamide] | 2.5 µM | – |
| CCCC(=O)NC1N=C(c2ccccc2)c2ccccc2NC1=O (stereo not drawn) [Example 4, N-(2-Oxo-5-phenyl-2,3-dihydro-1H-benzo[e][1,4]diazepin-3-yl)-butyramide] | 5 µM | – |
| CC(C)C(=O)NC1N=C(c2ccccc2)c2ccccc2NC1=O (stereo not drawn) [Example 5, N-(2-Oxo-5-phenyl-2,3-dihydro-1H-benzo[e][1,4]diazepin-3-yl)-isobutyramide] | 2.5 µM | – |
| CC(C)(C)C(=O)NC1N=C(c2ccccc2)c2ccccc2NC1=O (stereo not drawn) [Example 6, 2,2-Dimethyl-N-(2-Oxo-5-phenyl-2,3-dihydro-1H-benzo[e][1,4]diazepin-3-yl)-propionamide] | 6 µM | – |
| O=C(NC1N=C(c2ccccc2)c2ccccc2NC1=O)C1CCCC1 (stereo not drawn) [Example 7, Cyclopentanecarboxylic acid (2-oxo-5-phenyl-2,3-dihydro-1H-benzo[e][1,4]diazepin-3-yl)-amide] | 2 µM | – |
| O=C(NC1N=C(c2ccccc2)c2ccccc2NC1=O)C1CCCCC1 (stereo not drawn) [Example 8] | – | 2 µM |
| COc1ccc(C(=O)NC2N=C(c3ccccc3)c3ccccc3NC2=O)cc1 (stereo not drawn) [Example 10, 4-Methoxy N-(2-oxo-5-phenyl-2,3-dihydro-1H-benzo[e][1,4]diazepin-3-yl)-benzamide] | – | 1.5 µM |
| COc1ccccc1C(=O)NC1N=C(c2ccccc2)c2ccccc2NC1=O (stereo not drawn) [Example 11, 2-Methoxy N-(2-oxo-5-phenyl-2,3-dihydro-1H-benzo[e][1,4]diazepin-3-yl)-benzamide] | – | 0.5 µM |
| O=C(NC1N=C(c2ccccc2)c2ccccc2NC1=O)c1cccc(C(F)(F)F)c1 (stereo not drawn) [Example 12, N-(2-Oxo-5-phenyl-2,3-dihydro-1H-benzo[e][1,4]diazepin-3-yl)-3-trifluoromethyl-benzamide] | 2.5 µM | – |
| O=C(NC1N=C(c2ccccc2)c2ccccc2NC1=O)c1ccccc1 (stereo not drawn) [Example 13, N-(2-Oxo-5-phenyl-2,3-dihydro-1H-benzo[e][1,4]diazepin-3-yl)-benzamide] | 1.5 µM | – |
| O=C(NC1N=C(c2ccccc2)c2ccccc2NC1=O)c1cccs1 (stereo not drawn) [Example 14, Thiophene-2-carboxylic acid (2-oxo-5-phenyl-2,3-dihydro-1H-benzo[e][1,4]diazepin-3-yl)-3-amide] | – | 1.5 µM |
| O=C(NC1N=C(c2ccccc2)c2ccccc2NC1=O)c1ccco1 (stereo not drawn) [Example 15, Furan-2-carboxylic acid (2-oxo-5-phenyl-2,3-dihydro-1H-benzo[e][1,4]diazepin-3-yl)-amide] | 1 µM | – |
| O=C1Nc2ccccc2C(c2ccccc2)=NC1NC(=O)N1CCCCC1 (stereo not drawn) [Example 16] | – | 2 µM |
| O=C1Nc2ccccc2C(c2ccccc2)=NC1NC(=O)N1CCOCC1 (stereo not drawn) [Example 17, Morpholine-4-carboxylic acid (2-oxo-5-phenyl-2,3-dihydro-1H-benzo[e][1,4]diazepin-3-yl)-amide] | 5 µM | – |
| O=C(NC1N=C(c2ccccc2)c2ccccc2NC1=O)c1ccc([N+](=O)[O-])cc1 (stereo not drawn) [Example 18, 4-Nitro-N-(2-oxo-5-phenyl-2,3-dihydro-1H-benzo[e][1,4]diazepin-3-yl)-benzamide] | 2 µM | – |
| CN1CCN(C(=O)NC2N=C(c3ccccc3)c3ccccc3NC2=O)CC1 (stereo not drawn) [Example 20, 4-Methyl-piperazine-1-carboxylic acid-(2-oxo-5-phenyl-2,3-dihydro-1H-benzo[e][1,4]diazepin-3-yl)-amide] | 25 µM | – |
| O=C(NC1N=C(c2ccccc2)c2ccccc2NC1=O)c1ccc(Cl)c(Cl)c1 (stereo not drawn) [Example 21, 3,4-Dichloro-N-(2-oxo-5-phenyl-2,3-dihydro-1H-benzo[e][1,4]diazepin-3-yl)-benzamide] | 6 µM | – |
| O=C(NC1N=C(c2ccccc2)c2ccccc2NC1=O)c1ccccc1C(F)(F)F (stereo not drawn) [Example 22, N-(2-oxo-5-phenyl-2,3-dihydro-1H-benzo[e][1,4]diazepin-3-yl)-2-trifluoromethyl-benzamide] | 4 µM | – |
| O=C(NC1N=C(c2ccccc2)c2ccccc2NC1=O)c1ccc(Br)cc1 (stereo not drawn) [Example 23, 4-Bromo-N-(2-oxo-5-phenyl-2,3-dihydro-1H-benzo[e][1,4]diazepin-3-yl)-benzamide] | 5 µM | – |

| Compound | IC50 [1] | IC50 (Table 1, read-out: XTT IC50) |
| --- | --- | --- |
| Cc1ccccc1C(=O)NC1N=C(c2ccccc2)c2ccccc2NC1=O (stereo not drawn) [Example 24, 2-Methyl-N-(2-oxo-5-phenyl-2,3-dihydro-1H-benzo[e][1,4]diazepin-3-yl)-benzamide] | 3 µM | – |
| O=C(NC1N=C(c2ccccc2)c2ccccc2NC1=O)c1ccccc1Cl (stereo not drawn) [Example 25, 2-Chloro-N-(2-oxo-5-phenyl-2,3-dihydro-1H-benzo[e][1,4]diazepin-3-yl)-benzamide] | 2 µM | – |
| O=C(NC1N=C(c2ccccc2)c2ccccc2NC1=O)c1ccccc1[N+](=O)[O-] (stereo not drawn) [Example 26, 2-Nitro-N-(2-oxo-5-phenyl-2,3-dihydro-1H-benzo[e][1,4]diazepin-3-yl)-benzamide] | 2 µM | – |
| COc1cc([N+](=O)[O-])ccc1C(=O)NC1N=C(c2ccccc2)c2ccccc2NC1=O (stereo not drawn) [Example 27a, 2-Methoxy-4-nitro-N-(2-oxo-5-phenyl-2,3-dihydro-1H-benzo[e][1,4]diazepin-3-yl)-benzamide] | 0.3 µM | – |
| COc1cc([N+](=O)[O-])ccc1C(=O)N[C@H]1N=C(c2ccccc2)c2ccccc2NC1=O [Example 27b, (S)-2-Methoxy-4-nitro-N-(2-oxo-5-phenyl-2,3-dihydro-1H-benzo[e][1,4]diazepin-3-yl)-benzamide] | < 0.3 µM | – |
| O=C(NC1N=C(c2ccccc2)c2ccccc2NC1=O)c1csc2ccccc12 (stereo not drawn) [Example 28, Benzo[b]thiophene-3-carboxylic acid (2-oxo-5-phenyl-2,3-dihydro-1H-benzo[e][1,4]diazepin-3-yl)-amide] | 5 µM | – |
| O=C(NC1N=C(c2ccccc2)c2ccccc2NC1=O)c1ccc2c(c1)CCO2 (stereo not drawn) [Example 29, 2,3-Dihydro-benzofuran-5-carboxylic acid (2-oxo-5-phenyl-2,3-dihydro-1H-benzo[e][1,4]diazepin-3-yl)-amide] | 2 µM | – |
| O=C(NC1N=C(c2ccccc2)c2ccccc2NC1=O)c1ccno1 (stereo not drawn) [Example 30, Isoxazole-5-carboxylic acid (2-oxo-5-phenyl-2,3-dihydro-1H-benzo[e][1,4]diazepin-3-yl)-amide] | 3 µM | – |
| O=C(NC1N=C(c2ccccc2)c2ccccc2NC1=O)c1cc2ccccc2s1 (stereo not drawn) [Example 31, Benzo[b]thiophene-2-carboxylic acid (2-oxo-5-phenyl-2,3-dihydro-1H-benzo[e][1,4]diazepin-3-yl)-amide] | 5 µM | – |
| O=C(NC1N=C(c2ccccc2)c2ccccc2NC1=O)c1ccsc1 (stereo not drawn) [Example 32, Thiophen-3-carboxylic acid (2-oxo-5-phenyl-2,3-dihydro-1H-benzo[e][1,4]diazepin-3-yl)-amide] | 2 µM | – |
| O=C(NC1N=C(c2ccccc2)c2ccccc2NC1=O)c1ccncc1 (stereo not drawn) [Example 33, N-(2-Oxo-5-phenyl-2,3-dihydro-1H-benzo[e][1,4]diazepin-3-yl)-isonicotinamide] | 2.5 µM | – |
| O=C(NC1N=C(c2ccccc2)c2ccccc2NC1=O)c1cccnc1 (stereo not drawn) [Example 34, N-(2-Oxo-5-phenyl-2,3-dihydro-1H-benzo[e][1,4]diazepin-3-yl)-nicotinamide] | 3 µM | – |
| CS(=O)(=O)NC1N=C(c2ccccc2)c2ccccc2NC1=O (stereo not drawn) [Example 35, N-(2-Oxo-5-phenyl-2,3-dihydro-1H-benzo[e][1,4]diazepin-3-yl)methanesulfonamide] | 6 µM | – |
| CCCS(=O)(=O)NC1N=C(c2ccccc2)c2ccccc2NC1=O (stereo not drawn) [Example 36] | – | 15 µM |
| CCCCS(=O)(=O)NC1N=C(c2ccccc2)c2ccccc2NC1=O (stereo not drawn) [Example 37, Butane-1-sulfonic acid-(2-oxo-5-phenyl-2,3-dihydro-H-benzo[e][1,4]diazepin-3-yl)-amide] | – | 15 µM |
| O=C1Nc2ccccc2C(c2ccccc2)=NC1NS(=O)(=O)c1ccccc1Br (stereo not drawn) [Example 38, 2-Bromo-N-(2-oxo-5-phenyl-2,3-dihydro-1H-benzo[e][1,4]diazepin-3-yl)-benzenesulfonamide] | 6 µM | – |
| O=C1Nc2ccccc2C(c2ccccc2)=NC1NS(=O)(=O)c1cccc(Br)c1 (stereo not drawn) [Example 39, 3-Bromo-N-(2-oxo-5-phenyl-2,3-dihydro-1H-benzo[e][1,4]diazepin-3-yl)-benzenesulfonamide] | 10 µM | – |
| O=C1Nc2ccccc2C(c2ccccc2)=NC1NS(=O)(=O)c1ccc(Br)cc1 (stereo not drawn) [Example 40, 4-Bromo-N-(2-oxo-5-phenyl-2,3-dihydro-1H-benzo[e][1,4]diazepin-3-yl)-benzenesulfonamide] | 10 µM | – |
| O=C1Nc2ccccc2C(c2ccccc2)=NC1NS(=O)(=O)c1ccccc1F (stereo not drawn) [Example 41, 2-Fluoro-N-(2-oxo-5-phenyl-2,3-dihydro-1H-benzo[e][1,4]diazepin-3-yl)-benzenesulfonamide] | 10 µM | – |
